Results as given in patent publication US20050136492A1, “Affinity labeling of enzymes for detection of enzyme activity level in living cells” (priority 2001, published 2005).
Where “and” joins values, the source holds several entries; their conditions need not be identical. Identical values can stand only once.

Legend:
HL-60 cells [1] = test: Pretreatment of HL-60 cells with unlabeled protease inhibitors during CPT induction of apoptosis; subsequent binding of FAM-VAD-FMK, FFCK or FLCK measured by LSC; assay type: cell-based, Human; conditions: HL-60, 0.15 μM CPT 3 h, pretreatment with unlabeled inhibitor (Z-VAD-FMK 50 μM); probe 10 μM; mean ± SE of three experiments
Experimental: (§1) Preparation of reagents: Fluorescent inhibitors of serine proteases (FLISP) reagents, 5(6)-Carboxyfluoresceinyl-L-phenylalanylchloromethyl ketone (FFCK) and 5(6)-carboxyfluoresceinyl-L-leucylchloromethyl ketone (FLCK) were dissolved initially in dimethyl sulfoxide (DMSO; Sigma) to yield a 10 mM concentration. Aliquots were made from this stock solution and stored frozen at −20° C. protected from light. This reagent stock was then diluted directly into the cell culture media to give a 1× working reagent concentration of 10 μM. Dilution of the reagent into aqueous (cell culture) media is done just prior to cell exposure to preserve the labile chloromethyl ketone reactivity of FLISP reagent.
Fluorescent inhibitors of caspases (FLICA) reagents, namely the fluorescein labeled VAD-FMK (FAM-VAD-FMK) and sulforhodamine labeled VAD-FMK (SR-VAD-FMK) (Immunochemistry Technologies; Bloomington, Minn.) were both designed to detect the presence of active caspases within apoptotic cells. These inhibitors were dissolved in DMSO to obtain a 150× concentrated stock solution. Aliquots of these solutions were stored at −20° C. in the dark. […]
Cell staining and fluorescence measurement by LSC: The HL-60 cells from the untreated or CPT treated cultures were centrifuged (200 g, 5 min) and resuspended in PBS at approximately 10^4 cells per 5 mL volume. […]

HL-60 cells [2] = test: Labeling of CPT-treated HL-60 cells with FLISP (FFCK, FLCK) and FLICA (FAM-VAD-FMK, SR-VAD-FMK) reagents, by LSC or fluorescence microscopy; assay type: cell-based, Human; conditions: for binding of the ligand by cells treated with CPT vs untreated (control) cells: HL-60, 3 h CPT, combined with PI; for fluorescence of labeled cells (appearance): dual labeling with SR-VAD-FMK, CPT-treated HL-60, microscopy/LSC imaging
Experimental: as §1
Fluorescent inhibitors of caspases (FLICA) reagents, namely the fluorescein labeled VAD-FMK (FAM-VAD-FMK) and sulforhodamine labeled VAD-FMK (SR-VAD-FMK) (Immunochemistry Technologies; Bloomington, Minn.) were both designed to detect the presence of active caspases within apoptotic cells. These inhibitors were dissolved in DMSO to obtain a 150× concentrated stock solution. Aliquots of these solutions were stored at −20° C. in the dark. Prior to use, a 30× working solution of either FAM-VAD-FMK or SR-VAD-FMK was prepared by diluting the stock solution 1:5 in phosphate buffered saline (PBS) and mixing until the solution become clear. The 30× working solution was diluted 1:30 cell culture media to give a final 1× working reagent concentration of 10 μM.
Cells: Human promyelocytic leukemic HL-60 cells were obtained from American Type Culture Collection (ATCC; Rockville, Md.). They were cultured in 25 mL FALCON flasks (Becton Dickinson Co., Franklin Lakes, N.J.) using RPMI 1640 supplemented with 10% fetal calf serum, 100 units/mL penicillin, […] and 2 mM L-glutamine (all from Gibco/BRL Life Technologies, Inc., Grand Island, N.Y.) in a humidified incubator set to maintain 37.5° C. and 5% CO2 as previously described (Bedner et al., Exp Cell Res., 2000, 259:308-313; Smolewski et al., Cytometry, 2001, 44:73-82). At the onset of experiments, there were fewer than 5×10^5 cells/ml in culture. To induce apoptosis the cells were treated with 0.15 μM DNA topoisomerase I inhibitor camptothecin (CPT; Sigma Chemical Co., St. Louis, Mo.) for 3 hours.
Cell staining and fluorescence measurement by LSC: The HL-60 cells from the untreated or CPT treated cultures were centrifuged (200 g, 5 min) and resuspended in PBS at approximately 10^4 cells per 5 mL volume. Cells were then attached electrostatically to microscope slides as described before (Bedner et al., Exp Cell Res., 2000, 259:308-313; Smolewski et al., Cytometry, 2001, 44:73-82). The attachment was achieved by the incubation (15 min) of cells suspended in serum-free PBS in shallow (<1 mm depth; 1.5×1.5 cm) wells on horizontally placed microscope slides that were rinsed in 100% ethanol and air dried prior to use, at 100% humidity. The electrostatically attached cells remain viable, exclude such dyes as trypan blue and propidium iodide (PI), and have unchanged morphology for several hours (Bedner et al., Exp Cell Res., 2000, 259:308-313). After the cells became attached, PBS was removed from the wells and was replaced by 150 μL of the culture medium containing 10% FCS. FLISP staining solutions were prepared by diluting 5 μL of the 10 mM FFCK or FLCK stock solution into 5 mL of culture medium yielding a final FLISP concentration 10 μM. […]

| Substance | percent decrease in frequency of FLCK labeled cells vs cells treated with CPT without unlabeled inhibitor (HL-60 cells [1]) | binding of the ligand by cells treated with CPT vs untreated (control) cells (HL-60 cells [2]) | fluorescence of labeled cells (appearance) (HL-60 cells [2]) | greater fluorescence intensity of FLCK labeled cells compared to cells labeled with FFCK (HL-60 cells [2]; identical settings of photomultiplier sensitivity) |
| --- | --- | --- | --- | --- |
| N-tosyl-L-phenylalanine chloromethyl ketone [TPCK] | 38.9% and 38.9 ± 1.7% |  |  |  |
| 5(6)-Carboxyfluorescyl-L-leucylchloromethyl ketone [FLCK] |  | induced binding | faint | approximately 60% |
| 5(6)-Carboxyfluoresceinyl-L-phenylalanylchloromethyl ketone [FFCK] |  | induced binding | strong |  |
